# Data from patent US6020341A, “Enediyne quinone imines and methods of preparation and use thereof” (priority 1997, dated 2000).
# Where two headings read alike, the source gives them in different places.
# Key:
# [1] = tested on: Human acute lymphoblastic T cells (CCRF-CEM); test: Cytotoxicity, CCRF-CEM; format: cell-based; conditions: for IC50 / IC90: Homo sapiens, CCRF-CEM; for IC90: read-out: Cytotoxic Concentration IC90
# From the text: (§1) | cell growth by 50% (IC50) in μM.
# sarcoma 180 [2] = test: Antitumor activity against sarcoma 180 in mice (s.c. tumor, i.p. treatment); format: in vivo, mouse
# Protocol: ^a Tumor (2 × 10^6 cells) was inoculated s.c. Treatment
# started day 4, QD × 5, i.p.; control had nine mice, and each dose
# two mice; tumor size was evaluated on Day 7 after the beginning of
# started day 4, I.P., QD × 5; control had 3 mice, and each dose had
# mice; Tumor size was evaluated on day 7 after the beginning of treatment.
# [3] = tested on: Human testicular teratocarcinoma cells (833K); test: Cytotoxicity, 833K; format: cell-based; conditions: for IC50 / IC90: Homo sapiens, 833K; for IC90: read-out: Cytotoxic Concentration IC90
# From the text: as §1
# CCRF-CEM/VBL cells = test: Cytotoxicity, CCRF-CEM resistant to vinblastine; format: cell-based, human; conditions: for IC50 / IC90: Homo sapiens, CCRF-CEM; for IC90: read-out: Cytotoxic Concentration IC90
# From the text: as §1
# MT-4 leukemic cells = test: Growth inhibition, XTT assay, MT-4; format: cell-based; conditions: Table 8, MT-4, XTT
# Protocol: (§2) Cells were platted on day 1, drug was added on day 2, and XTT assays (for HL-60, MT-2, MT-4 leukemic cells) or SRB assays (for 833K and SK-Br-3 solid tumor cells) were carried out on day 5.
# [4] = tested on: Human promyelocytic leukemic cell (HL-60); test: Cytotoxicity, HL-60; format: cell-based; conditions: for IC50 / IC90: Homo sapiens; for IC90: read-out: Cytotoxic Concentration IC90
# From the text: as §1
# MT2 cells = test: Cytotoxicity, MT2; format: cell-based; conditions: Table 15, MT2
# [5] = tested on: SK-Br-3 solid tumor cells; test: Growth inhibition, SRB assay, SK-Br-3; format: cell-based; conditions: Homo sapiens, Table 8, SKBr-3, SRB
# Protocol: as §2
# MT-2 leukemic cells = test: Growth inhibition, XTT assay, MT-2; format: cell-based; conditions: Table 8, MT-2, XTT
# Protocol: as §2
# MT4 cells = test: Cytotoxicity, MT4; format: cell-based; conditions: Table 15, MT4
# HL-60 cells = test: Growth inhibition, XTT assay, HL-60; format: cell-based; conditions: Homo sapiens
# Protocol: as §2
# [6] = tested on: Lewis lung adenocarcinoma; test: Anticancer activity in B6D2F1 mice bearing Lewis lung adenocarcinoma; format: in vivo, mouse
# Protocol: ^a Tumor (2.5 × 10E6 cells) was inoculated S.C. on day (-3).
# Treatment started on day 1, I.P., Q.D.X5. Control had 6 mice and each dos
# had 5 mice. Tumor size was evaluated on day 7, day 10 and day 14.
# DC-3F cells = test: Single drug effect, SRB assay, DC-3F; format: cell-based, Chinese hamster; conditions: Cricetulus griseus, DC3F, Table 10, DC-3F, 72 h, read-out: Dm
# sarcoma 180 [7] = test: Antitumor activity against sarcoma 180 in B6D2F1 mice, b.i.d.x5; format: in vivo, mouse
# From the text: ^a Tumor (3 × 10^6 cells) was inoculated S.C. on day -3.
# Antitumor treatment started on day 1, b.i.d.X5, IP.
# [8] = Table 6, 0.2 mg/kg i.p. QD×5, day 7
# [9] = Table 6, 0.5 mg/kg i.p. QD×5, day 7
# [10] = Table 6, 2.0 mg/kg i.p. QD×5, day 7
# [11] = Table 14, vinblastine-resistant (VLB100)
# [12] = Table 3, CCRF-CEM/VBL, EQI-6 = (1)
# [13] = Homo sapiens, read-out: Cytotoxic Concentration IC50
# [14] = Homo sapiens, read-out: Cytotoxic Concentration IC90
# [15] = Table 11, 0.5 mg/kg i.p. Q.D.X5, Day 7
# [16] = Table 11, 0.5 mg/kg i.p. Q.D.X5, Day 10
# [17] = Table 11, 1.0 mg/kg i.p. Q.D.X5, Day 7
# [18] = Table 11, 1.0 mg/kg i.p. Q.D.X5, Day 10
# [19] = Table 11, 1.5 mg/kg i.p. Q.D.X5, Day 7
# [20] = Table 11, 1.5 mg/kg i.p. Q.D.X5, Day 10
# [21] = Table 11, 2.0 mg/kg i.p. Q.D.X5, Day 7
# [22] = Table 11, 2.0 mg/kg i.p. Q.D.X5, Day 10
# [23] = Table 12, 0.15 mg/kg IP b.i.d.X5, Day 7
# [24] = Table 12, 0.15 mg/kg IP b.i.d.X5, Day 14
# [25] = Table 12, 0.2 mg/kg IP b.i.d.X5, Day 7
# [26] = Table 12, 0.2 mg/kg IP b.i.d.X5, Day 14
# [27] = Table 12, 0.3 mg/kg IP b.i.d.X5, Day 7
# [28] = Table 12, 0.3 mg/kg IP b.i.d.X5, Day 14
smiles,measurement,setting,value
CO[C@@]12[C@H](COC(N)=O)C3=C(C(=O)C(C)=C(N)C3=O)N1C[C@@H]1N[C@@H]12 [mitomycin C],IC50,"[1]; Table 1, CCRF-CEM, read-out: IC50",140 nM
same,IC50,"[1]; Table 2, CCRF/CEM, read-out: concentration required to inhibit cell growth by 50% (IC50)",140 nM
same,IC50,"[1]; Table 3, CCRF-CEM, read-out: Cytotoxic Concentration IC50",140 nM
same,IC90,"[1]; Table 3, CCRF-CEM",364 nM
same,IC50,"[1]; Table 14, CCRF-CEM, read-out: Cytotoxic Concentration IC50",96 nM
same,IC90,"[1]; Table 14, CCRF-CEM",370 nM
same,Cytotoxic Concentration IC95,"[1]; Table 3, CCRF-CEM",503 nM
same,ratio of IC50 to EQI-6 (in parentheses),"[1]; Table 3, CCRF-CEM, EQI-6 = (1)",280 ×
same,ratio of IC90 to EQI-6 (in parentheses),"[1]; Table 3, CCRF-CEM, EQI-6 = (1)",165 ×
same,ratio of IC95 to EQI-6 (in parentheses),"[1]; Table 3, CCRF-CEM, EQI-6 = (1)",136 ×
same,Cytotoxic Concentration IC95,"[1]; Table 14, CCRF-CEM",584 nM
same,tumor inhibition,"sarcoma 180 [2]; 0.5 mg/kg i.p. QDx5, sarcoma",37.5%
same,AVE TUMOR VOLUME (T/C),sarcoma 180 [2]; [8],0.845
same,AWC (average weight change),sarcoma 180 [2]; [8],-0.5 g
same,AVE TUMOR VOLUME (T/C),sarcoma 180 [2]; [9],0.625
same,AWC (average weight change),sarcoma 180 [2]; [9],-2.3 g
same,AVE TUMOR VOLUME (T/C),sarcoma 180 [2]; [10],0.188
same,AWC (average weight change),sarcoma 180 [2]; [10],-1.4 g
same,IC50,"[3]; Table 2, 833K (Testicular), read-out: concentration required to inhibit cell growth by 50% (IC50)",318 nM
same,IC50,"[3]; Table 4, 833k, read-out: Cytotoxic Concentration IC50",318 nM
same,IC90,"[3]; Table 4, 833k",1530 nM
same,IC50,"[3]; Table 15, 833K, read-out: Cytotoxic Concentration IC50",394 nM
same,IC90,"[3]; Table 15, 833K",2290 nM
same,Cytotoxic Concentration IC95,"[3]; Table 4, 833k",2610 nM
same,ratio of IC50 to EQI-6 (in parentheses),"[3]; Table 4, 833k, EQI-6 = (1)",45.4 ×
same,ratio of IC90 to EQI-6 (in parentheses),"[3]; Table 4, 833k, EQI-6 = (1)",61.2 ×
same,ratio of IC95 to EQI-6 (in parentheses),"[3]; Table 4, 833k, EQI-6 = (1)",66.9 ×
same,Cytotoxic Concentration IC95,"[3]; Table 15, 833K",4155 nM
same,IC50,"CCRF-CEM/VBL cells; Table 2, CCRF/VBL (MDR/pg-p), read-out: concentration required to inhibit cell growth by 50% (IC50)",566 nM
same,IC50,"CCRF-CEM/VBL cells; Table 3, CCRF-CEM/VBL, read-out: Cytotoxic Concentration IC50",566 nM
same,IC90,"CCRF-CEM/VBL cells; Table 3, CCRF-CEM/VBL",2330 nM
same,IC50,"CCRF-CEM/VBL cells; Table 14, vinblastine-resistant (VLB100), read-out: Cytotoxic Concentration IC50",917 nM
same,IC90,CCRF-CEM/VBL cells; [11],2400 nM
same,Cytotoxic Concentration IC95,"CCRF-CEM/VBL cells; Table 3, CCRF-CEM/VBL",3770 nM
same,ratio of IC50 to EQI-6 (in parentheses),CCRF-CEM/VBL cells; [12],299.5 ×
same,ratio of IC90 to EQI-6 (in parentheses),CCRF-CEM/VBL cells; [12],375.8 ×
same,ratio of IC95 to EQI-6 (in parentheses),CCRF-CEM/VBL cells; [12],405.4 ×
same,Cytotoxic Concentration IC95,CCRF-CEM/VBL cells; [11],3327 nM
same,IC50,MT-4 leukemic cells,150 nM
same,IC50,"[4]; HL-60, Table 1, HL-60, read-out: IC50",48.4 nM
same,IC50,"[4]; HL-60, Table 2, HL60, read-out: concentration required to inhibit cell growth by 50% (IC50)",48 nM
same,IC50,"[4]; HL-60, Table 3, HL-60, read-out: Cytotoxic Concentration IC50",48.4 nM
same,IC90,"[4]; HL-60, Table 3, HL-60",197 nM
same,IC50,"[4]; HL-60, Table 15, HL-60, read-out: Cytotoxic Concentration IC50",51 nM
same,IC90,"[4]; HL-60, Table 15, HL-60",167 nM
same,Cytotoxic Concentration IC95,"[4]; Table 3, HL-60",319 nM
same,ratio of IC50 to EQI-6 (in parentheses),"[4]; Table 3, HL-60, EQI-6 = (1)",83.4 ×
same,ratio of IC90 to EQI-6 (in parentheses),"[4]; Table 3, HL-60, EQI-6 = (1)",75.8 ×
same,ratio of IC95 to EQI-6 (in parentheses),"[4]; Table 3, HL-60, EQI-6 = (1)",72.5 ×
same,Cytotoxic Concentration IC95,"[4]; Table 15, HL-60",250 nM
same,IC50,MT2 cells; [13],169 nM
same,IC90,MT2 cells; [14],398 nM
same,Cytotoxic Concentration IC95,MT2 cells,532 nM
same,IC50,[5],300 nM
same,IC50,MT-2 leukemic cells,100 nM
same,IC50,MT4 cells; [13],115 nM
same,IC90,MT4 cells; [14],253 nM
same,Cytotoxic Concentration IC95,MT4 cells,331 nM
same,IC50,"HL-60 cells; Table 8, HL-60, XTT, growth inhibition, read-out: IC50",80 nM
same,IC50,"HL-60 cells; Table 9, HL 60, XTT, 72 h, read-out: Dm",48 nM
same,AWC (average weight change),[6]; [15],-1.5 g
same,Avg Tumor Vol (T/C),[6]; [15],0.530
same,AWC (average weight change),[6]; [16],-0.1 g
same,Avg Tumor Vol (T/C),[6]; [16],0.712
same,AWC (average weight change),[6]; [17],-0.8 g
same,Avg Tumor Vol (T/C),[6]; [17],0.380
same,AWC (average weight change),[6]; [18],-0.9 g
same,Avg Tumor Vol (T/C),[6]; [18],0.451
same,AWC (average weight change),[6]; [19],-1.5 g
same,Avg Tumor Vol (T/C),[6]; [19],0.340
same,AWC (average weight change),[6]; [20],-1.3 g
same,Avg Tumor Vol (T/C),[6]; [20],0.402
same,mortality,"[6]; Table 11, 2.0 mg/kg i.p. Q.D.X5",One of 5 mice died on day 7
same,AWC (average weight change),[6]; [21],-1.8 g
same,Avg Tumor Vol (T/C),[6]; [21],0.286
same,AWC (average weight change),[6]; [22],1.6 g
same,Avg Tumor Vol (T/C),[6]; [22],0.485
same,IC50,DC-3F cells,59 nM
same,AWC (average weight change),sarcoma 180 [7]; [23],-0.6 g
same,Avg Tumor Volume (T/C),sarcoma 180 [7]; [23],0.650
same,AWC (average weight change),sarcoma 180 [7]; [24],+0.2 g
same,Avg Tumor Volume (T/C),sarcoma 180 [7]; [24],0.814
same,AWC (average weight change),sarcoma 180 [7]; [25],+0.8 g
same,Avg Tumor Volume (T/C),sarcoma 180 [7]; [25],0.538
same,AWC (average weight change),sarcoma 180 [7]; [26],-0.6 g
same,Avg Tumor Volume (T/C),sarcoma 180 [7]; [26],0.485
same,AWC (average weight change),sarcoma 180 [7]; [27],-1.8 g
same,Avg Tumor Volume (T/C),sarcoma 180 [7]; [27],0.249
same,AWC (average weight change),sarcoma 180 [7]; [28],-1.0 g
same,Avg Tumor Volume (T/C),sarcoma 180 [7]; [28],0.394
